Measured values published in ChEMBL document CHEMBL6127107, “Oleanolic acid derivatives against drug-resistant bacteria and fungi by multi-targets to avoid drug resistance” (Eur J Med Chem, 2024).
Values after ≈ are worked out from the molar mass of the structure shown. Active and inactive are the calls of the source. No cut-off for these calls is given here.

Tests used:
Staphylococcus aureus [1] = assay: Antibacterial activity against methicillin-resistant Staphylococcus aureus at sub-MIC measured after 20 days of continuous passage; format: functional, organism-based; settings: time 20.0 day
DNA [2] = assay: Binding affinity to methicillin-resistant Staphylococcus aureus DNA assessed as inhibition of DNA migration at 75 microg/ml by electrophoretic analysis; format: nucleic-acid assay; settings: dose 75.0 µg/ml
Staphylococcus aureus [3] = assay: Antibacterial activity against methicillin-resistant Staphylococcus aureus infected in cyclophosphamide-injected Kunming mouse model of skin wound infection assessed as increase in body weight at 2 to 4 mg/kg measured after 3 days; format: functional, organism-based; settings: dose 2-4 mg/kg, time 3.0 day
DNA [4] = assay: Binding affinity to methicillin-resistant Staphylococcus aureus DNA minor groove assessed as decrease in fluorescence by DAPI staining based analysis; format: nucleic-acid assay
Staphylococcus aureus [5] = assay: Antibacterial activity against methicillin-resistant Staphylococcus aureus in presence of DNA; format: functional, organism-based
DNA [6] = assay: Binding affinity to […] methicillin-resistant Staphylococcus aureus DNA assessed as inhibition of DNA migration by electrophoretic analysis; format: nucleic-acid assay
Escherichia coli = assay: Antimicrobial activity against Escherichia coli; format: functional
Staphylococcus aureus [7] = assay: Synergistic antibacterial activity against methicillin-resistant Staphylococcus aureus assessed as fractional inhibitory concentration index in presence of LCN antibiotic; format: functional, organism-based
Cell membrane [8] = assay: Disruption of cell membrane integrity in methicillin-resistant Staphylococcus aureus assessed as nucleic acid leakage by absorbance based analysis; format: subcellular
Staphylococcus aureus [9] = assay: Selectivity ratio of MBEC for methicillin-resistant Staphylococcus aureus to MIC for methicillin resistant Staphylococcus aureus; format: functional
Staphylococcus aureus [10] = assay: Antimicrobial activity against Staphylococcus aureus 31; format: functional
Staphylococcus aureus [11] = assay: Antibacterial activity against methicillin-resistant Staphylococcus aureus infected in cyclophosphamide-injected Kunming mouse model of skin wound infection assessed as reduction in skin lesions at 1 to 4 mg/kg administered for 7 days and measured on day 8 by H and E staining based analysis; format: functional, organism-based; settings: dose 1-4 mg/kg, time 8.0 day
Staphylococcus aureus [12] = assay: Antibacterial activity against methicillin-resistant Staphylococcus aureus infected in cyclophosphamide-injected Kunming mouse model of skin wound infection assessed as wound scabbing at 2 to 4 mg/kg measured after 2 days by photographic analysis; format: functional, organism-based; settings: dose 2-4 mg/kg, time 2.0 day
Staphylococcus aureus [13] = assay: Antibiofilm activity against methicillin-resistant Staphylococcus aureus assessed as inhibition of biofilm formation at 2 times of MIC by crystal violet staining based analysis relative to control; format: functional
Staphylococcus aureus [14] = assay: Antibiofilm activity against methicillin-resistant Staphylococcus aureus assessed as reduction in number of live cells at 8 times of MIC (reference value: 7.79 log10CFU/ml); format: functional
Staphylococcus aureus [15] = assay: Antibacterial activity against methicillin-resistant Staphylococcus aureus infected in cyclophosphamide-injected Kunming mouse model of skin wound infection assessed as wound repair by measuring reduction in wound area at 2 to 4 mg/kg measured for 7 days by photographic analysis; format: functional, organism-based; settings: dose 2-4 mg/kg, time 7.0 day
Staphylococcus aureus [16] = assay: Synergistic antibacterial activity against methicillin-resistant Staphylococcus aureus assessed as fractional inhibitory concentration index in presence of azithromycin; format: functional
Staphylococcus aureus [17] = assay: Antimicrobial activity against methicillin-resistant Staphylococcus aureus in presence of peptidoglycan; format: functional, organism-based
Pseudomonas aeruginosa = assay: Antimicrobial activity against Pseudomonas aeruginosa; format: functional
DNA [18] = assay: Binding affinity to methicillin-resistant Staphylococcus aureus DNA assessed as decrease in fluorescence by PI staining based analysis; format: nucleic-acid assay
Enterococcus faecalis = assay: Antimicrobial activity against vancomycin resistant Enterococcus faecalis ATCC 51299; format: functional
Staphylococcus aureus [19] = assay: Antibacterial activity against methicillin-resistant Staphylococcus aureus infected in cyclophosphamide-injected Kunming mouse model of skin wound infection assessed as normal morphological appearance of skin at 1 to 4 mg/kg administered for 7 days and measured on day 8 by H and E staining based analysis; format: functional, organism-based; settings: dose 1-4 mg/kg, time 8.0 day
[20] = Selectivity index, ratio of HC50 for hemolytic activity against Mianyang red blood cells (unknown origin) to MIC for antimicrobial activity against methicillin resistant Staphylococcus aureus 003; format: toxicity, cell-based, RBC; settings: read-out: Selectivity Index
HEK-293T = assay: Cytotoxicity against HEK293T cells at 64 microg/ml by MTT assay; format: toxicity, cell-based; settings: human, dose 64 µg/ml
DNA [21] = assay: Binding affinity to methicillin-resistant Staphylococcus aureus DNA assessed as effect on helical structure by measuring change in positive and negative peaks at 10 to 40 microg/ml by CD spectra; format: nucleic-acid assay; settings: dose 10-40 µg/ml
Staphylococcus aureus [22] = assay: Synergistic antibacterial activity against methicillin-resistant Staphylococcus aureus assessed as fractional inhibitory concentration index in presence of fluconazole; format: functional
Staphylococcus aureus [23] = assay: Synergistic antibacterial activity against methicillin-resistant Staphylococcus aureus assessed as fractional inhibitory concentration index in presence of norfloxacin; format: functional, organism-based
Cell membrane [24] = assay: Disruption of cell membrane integrity in methicillin-resistant Staphylococcus aureus assessed as increase in ROS level at 2 to 8 times of MIC incubated for 1 hrs; format: subcellular
Mitochondrial membrane = assay: Induction of mitochondrial membrane depolarization in methicillin-resistant Staphylococcus aureus assessed as increase in fluorescence intensity at 1 to 8 times of MIC by DiSC3(5) staining based analysis; format: cell membranes
Staphylococcus aureus [25] = assay: Antibacterial activity against methicillin-resistant Staphylococcus aureus infected in cyclophosphamide-injected Kunming mouse model of skin wound infection assessed as increase in IL-10 level in skin at 1 to 4 mg/kg administered for 7 days and measured on day 8; format: functional, organism-based; settings: dose 1-4 mg/kg, time 8.0 day
Staphylococcus aureus [26] = assay: Antimicrobial activity against methicillin-resistant Staphylococcus aureus 011; format: functional
Staphylococcus aureus [27] = assay: Synergistic antibacterial activity against methicillin-resistant Staphylococcus aureus assessed as fractional inhibitory concentration index in presence of streptomycin; format: functional
Staphylococcus aureus [28] = assay: Antimicrobial activity against Staphylococcus aureus 10; format: functional
Staphylococcus aureus [29] = assay: Synergistic antibacterial activity against methicillin-resistant Staphylococcus aureus assessed as fractional inhibitory concentration index in presence of cefoxitin; format: functional
Candida albicans = assay: Antimicrobial activity against fluconazole-resistant Candida albicans; format: functional
Staphylococcus aureus [30] = assay: Antibacterial activity against methicillin-resistant Staphylococcus aureus infected in cyclophosphamide-injected Kunming mouse model of skin wound infection assessed as reduction in bacterial load in skin at 4 mg/kg measured after 7 days; format: functional; settings: time 7 day
Cell membrane [31] = assay: Disruption of cell membrane integrity in methicillin-resistant Staphylococcus aureus assessed as increase in PI fluorescence at 2 to 8 times of MIC by PI staining based fluorescence analysis; format: subcellular
Staphylococcus aureus [32] = assay: Synergistic antibacterial activity against methicillin-resistant Staphylococcus aureus assessed as fractional inhibitory concentration index in presence of vancomycin; format: functional
Staphylococcus aureus [33] = assay: Antibacterial activity against methicillin-resistant Staphylococcus aureus infected in cyclophosphamide-injected Kunming mouse model of skin wound infection assessed as reduction in bacterial load in skin at 2 mg/kg measured after 7 days; format: functional; settings: time 7 day
Staphylococcus aureus [34] = assay: Synergistic antibacterial activity against methicillin-resistant Staphylococcus aureus assessed as fractional inhibitory concentration index in presence of enrofloxacin; format: functional, organism-based
Cell membrane [35] = assay: Disruption of cell membrane integrity in Candida albicans; format: subcellular
Staphylococcus aureus [36] = assay: Antibiofilm activity against methicillin-resistant Staphylococcus aureus assessed as decrease in biofilm biomass at 1 to 8 times of MIC by crystal violet staining based analysis; format: functional, organism-based
Staphylococcus aureus [37] = assay: Antibacterial activity against methicillin-resistant Staphylococcus aureus infected in cyclophosphamide-injected Kunming mouse model of skin wound infection assessed as reduction in bacterial load in skin at 1 mg/kg measured after 7 days; format: functional; settings: time 7 day

For CC(=O)O[C@H]1CC[C@]2(C)[C@H]3CC=C4[C@@H]5CC(C)(C)CC[C@]5(C(=O)NCCCNC(=N)N)CC[C@@]4(C)[C@]3(C)CC[C@H]2C1(C)C, the Activity (Staphylococcus aureus [1]) was “Active”, the Activity (DNA [2]) was “Active” and the Activity (Staphylococcus aureus [3]) was “Active”. For the same molecule, the Activity (DNA [4]) was “inactive”, the Activity (Staphylococcus aureus [5]) was “inactive” and the Activity (DNA [6]) was “Active”. For the same molecule, the MIC (Escherichia coli) was greater than 64 µg/mL, the Activity (Staphylococcus aureus [7]) was “Active” and the Activity (Cell membrane [8]) was “Active”. The selectivity ratio (Staphylococcus aureus [9]) was 16, the MIC (Staphylococcus aureus [10]) was 1 µg/mL (≈ 1.68 µM) and the Activity (Staphylococcus aureus [11]) was “Active”. The Activity (Staphylococcus aureus [12]) was “Active”, the “inhibition (INH)” value (Staphylococcus aureus [13]) was greater than 80% and the Activity (Staphylococcus aureus [14]) was 2.7 log10CFU/ml. The Activity (Staphylococcus aureus [15]) was “Active”, the “fractional inhibitory concentration index (FICI)” value (Staphylococcus aureus [16]) was 0.188 and the Activity (Staphylococcus aureus [17]) was “Active”. The MIC (Pseudomonas aeruginosa) was greater than 64 µg/mL, the Activity (DNA [18]) was “Dose-Dependent Effect” and the MIC (Enterococcus faecalis) was 2 µg/mL (≈ 3.35 µM). For the same molecule, the Activity (Staphylococcus aureus [19]) was “Active”, the selectivity ratio [20] was 399 and the Activity (HEK-293T) was “Non-Toxic”. For the same molecule, the Activity (DNA [21]) was “Active”, the Activity (Staphylococcus aureus [22]) was “Active” and the Activity (Staphylococcus aureus [23]) was “Active”. For the same molecule, the Activity (Cell membrane [24]) was “Active”, the Activity (Mitochondrial membrane) was “Dose-Dependent Effect” and the Activity (Staphylococcus aureus [25]) was “Active”. The MIC (Staphylococcus aureus [26]) was 2 µg/mL (≈ 3.35 µM), the Activity (Staphylococcus aureus [27]) was “Active” and the MIC (Staphylococcus aureus [28]) was 1 µg/mL (≈ 1.68 µM). The Activity (Staphylococcus aureus [29]) was “Active”, the MIC (Candida albicans) was 1 µg/mL (≈ 1.68 µM) and the Activity (Staphylococcus aureus [30]) was 1.94 log10CFU/mg. The Activity (Cell membrane [31]) was “Active”, the Activity (Staphylococcus aureus [32]) was “Active” and the Activity (Staphylococcus aureus [33]) was 1.24 log10CFU/mg. The Activity (Staphylococcus aureus [34]) was “Active”, the Activity (Cell membrane [35]) was “Active” and the Activity (Staphylococcus aureus [36]) was “Active”. The Activity (Staphylococcus aureus [37]) was 0.97 log10CFU/mg.
